Measurements: patent US9481654B2, “Compositions and methods for inhibition of the JAK pathway” (Rigel Pharmaceuticals, Inc., priority 2006, dated 2016)
Counter-ions that a name gives are not always drawn.

Legend:
[1] = tested on: IL-4 stimulated CD23 upregulation in human Ramos B cells (JAK-1/JAK-3, Stat-6); experiment: Assay for Ramos B-Cell Line Stimulated with IL-4 (CD23 upregulation, FACS); type: cell-based
Procedure, shortened: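 Log-phase Ramos B cells (5×10^4 per point, RPMI with 5% serum) pre-incubated with compound or DMSO 1 h at 37° C, then stimulated with IL-4 at 50 units/mL final for 20-24 h. CD23 upregulation measured by staining and flow cytometry.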

[2] = tested on: primary human T-cells (IL-2 induced proliferation, JAK-1/JAK-3, Stat-5); experiment: Primary Human T-Cell Proliferation Assay Stimulated with IL-2 (CellTiter-Glo); type: cell-based; conditions: Table III Example 4
Experimental: In this assay, primary human T-cells derived from peripheral blood and pre-activated through stimulation of the T-cell receptor and CD28, proliferate in culture in response to the cytokine Interleukin-2 (IL-2). This proliferative response is dependent on the activation of JAK1 and JAK3 tyrosine kinases, which phosphorylate and activate the transcription factor Stat-5. The primary human T-cells are incubated with the 2,4-pyrimidinediamine compounds in the presence of IL-2 for 72 hours, and at the assay endpoint intracellular ATP concentrations are measured to assess cell viability. A reduction in cell proliferation compared to control conditions is indicative of inhibition of the JAK kinase pathway.
Primary human T-cells derived from peripheral blood and pre-activated through stimulation of the T-cell receptor and CD28 proliferate in vitro in response to the cytokine Interleukin-2 (IL-2). This proliferative response is dependent on the activation of JAK-1 and JAK-3 tyrosine kinases, which phosphorylate and activate the transcription factor Stat-5.
Human primary T cells were prepared as follows. […] The lymphocytes at the serum: ficoll interface were recovered and washed twice with 5 volumes of PBS. […] The primary T-cells were stimulated for 3 to 4 days, then transferred to a fresh flask and maintained in RPMI with 10% FBS and 40 U/mL IL-2.
Primary T-cells were washed twice with PBS to remove the IL-2 and resuspended in Yssel's medium at 2×10^6 cells/mL. 50 μL of cell suspension containing 80 U/mL IL-2 was added to each well of a flat bottom 96 well black plate. For the unstimulated control, IL-2 was omitted from the last column on the plate. […] 50 μL of 2× compound was added per well in duplicate and the cells were allowed to proliferate for 72 hours at 37° C.
Proliferation was measured using CellTiter-Glo® Luminescent Cell Viability Assay (Promega), which determines the number of viable cells in culture based on quantitation of the ATP present, as an indicator of metabolically active cells. The substrate was thawed and allowed to come to room temperature. After mixing the Cell Titer-Glo reagent and diluent together, 100 μL was added to each well. The plates were mixed on an orbital shaker for two minutes to induce lysis and incubated at room temperature for an additional ten minutes to allow the signal to equilibrate.

Compound | IC50 ([1]; Table III Example 3) | IC50 [2] | IC50 ([1]; Table III Example 3, sodium salt)
CS(=O)(=O)CS(=O)(=O)NCc1ccc(Nc2nc(Nc3cccc(S(N)(=O)=O)c3)ncc2F)cc1 [Compound I-86, N2-(3-aminosulfonyl)phenyl-5-fluoro-N4-[4-(methylsulfonylmethylsulfonylamino)methyl]phenyl-2,4-pyrimidinediamine] | 505 nM | 224 nM | –
Cc1ccc(Nc2ncc(F)c(Nc3ccc(CNS(=O)(=O)CS(C)(=O)=O)cc3)n2)cc1S(N)(=O)=O [Compound I-87, N2-(3-aminosulfonyl-4-methyl)phenyl-5-fluoro-N4-[4-(methylsulfonylmethylsulfonylamino)methyl]phenyl-2,4-pyrimidinediamine] | 251 nM | 309 nM | –
NS(=O)(=O)c1ccc(Nc2ncc(F)c(Nc3ccc(CNS(=O)(=O)c4cccnc4)cc3)n2)cc1 [Compound I-89, N2-(4-aminosulfonyl)phenyl-5-fluoro-N4-[4-(pyrid-3-yl)sulfonylaminomethyl]phenyl-2,4-pyrimidinediamine] | 448 nM | 1500 nM | –
Cc1cnc(Nc2ccc(S(N)(=O)=O)cc2)nc1Nc1ccc(CNS(=O)(=O)c2cccnc2)cc1 [Compound I-99, N2-(4-aminosulfonyl)phenyl-5-methyl-N4-[4-(pyrid-3-yl)sulfonylaminomethyl]phenyl-2,4-pyrimidinediamine] | 565 nM | 954 nM | –
Cc1ccc(Nc2ncc(F)c(Nc3cccc(CS(=O)(=O)NC4CCN(C)CC4)c3)n2)cc1S(N)(=O)=O [Compound I-107, N2-(3-Aminosulfonyl-4-methylphenyl)-5-fluoro-N4-[3-(1-methylpiperdin-4-ylaminosulfonylmethylene)phenyl]-2,4-pyrimidinediamine] | 2930 nM | 18100 nM | –
CN1CCC(NS(=O)(=O)Cc2cccc(Nc3nc(Nc4cccc(S(N)(=O)=O)c4)ncc3F)c2)CC1 [Compound I-108, N2-(3-Aminosulfonylphenyl)-5-fluoro-N4-[3-(1-methylpiperdin-4-ylaminosulfonylmethylene)phenyl]-2,4-pyrimidinediamine] | 5160 nM | 25800 nM | –
Cc1cnc(Nc2cccc(S(=O)(=O)NC(=O)CN)c2)nc1Nc1cccc(CNS(=O)(=O)C2CC2)c1 [Compound I-133, N2-[3-N-(2-amino-1-oxoethyl)aminosulfonyl]phenyl-N4-(3-cyclopropylsulfonylaminomethyl)phenyl-5-methyl-2,4-pyrimidinediamine hydrogen chloride salt] | 715 nM | 1210 nM | –
Cc1cnc(Nc2cccc(S(=O)(=O)NC(=O)[C@@H](NC(=O)OCc3ccccc3)C(C)C)c2)nc1Nc1cccc(CNS(=O)(=O)C2CC2)c1 [Compound I-147, N2-[3-N-(Cbz-L-Val)aminosulfonyl]phenyl-N4-(3-cyclopropylsulfonylaminomethyl)phenyl-5-methyl-2,4-pyrimidinediamine sodium salt] | – | 25100 nM | 13800 nM
Cc1cnc(Nc2ccc(S(=O)(=O)Nc3ccccc3)cc2)nc1Nc1ccc(CNS(=O)(=O)C2CC2)cc1 [Compound I-149, N4-(4-cyclopropylsulfonylaminomethyl)phenyl-5-methyl-N2-(4-phenylaminosulfonyl)phenyl-2,4-pyrimidinediamine] | 82.2 nM | 190 nM | –
Cc1cnc(Nc2ccc(S(=O)(=O)NC3CCN(C)CC3)cc2)nc1Nc1ccc(CNS(=O)(=O)C2CC2)cc1 [Compound I-151, N4-(4-cyclopropylsulfonylaminomethyl)phenyl-5-methyl-N2-[4-(1-methylpiperidin-4-yl)aminosulfonyl]phenyl-2,4-pyrimidinediamine] | 353 nM | 1080 nM | –
Cc1cnc(Nc2cccc(S(=O)(=O)NC3CCN(C)CC3)c2)nc1Nc1ccc(CNS(=O)(=O)C2CC2)cc1 [Compound I-152, N4-(4-cyclopropylsulfonylaminomethyl)phenyl-5-methyl-N2-[3-(1-methylpiperidin-4-yl)aminosulfonyl]phenyl-2,4-pyrimidinediamine] | 166 nM | 717 nM | –
Cc1cnc(Nc2ccc(S(=O)(=O)NCc3ccccc3)cc2)nc1Nc1ccc(CNS(=O)(=O)C2CC2)cc1 [Compound I-153, N2-(4-benzylaminosulfonyl)phenyl-N4-(4-cyclopropylsulfonylaminomethyl)phenyl-5-methyl-2,4-pyrimidinediamine] | 80 nM | 118 nM | –
Cc1cnc(Nc2ccc(S(=O)(=O)Nc3ccccc3)cc2)nc1Nc1cccc(CNS(=O)(=O)C2CC2)c1 [Compound I-155, N4-(3-cyclopropylsulfonylaminomethyl)phenyl-5-methyl-N2-(4-phenylaminosulfonyl)phenyl-2,4-pyrimidinediamine] | 250 nM | 1430 nM | –
Cc1cnc(Nc2cccc(S(=O)(=O)Nc3ccccc3)c2)nc1Nc1cccc(CNS(=O)(=O)C2CC2)c1 [Compound I-156, N4-(3-cyclopropylsulfonylaminomethyl)phenyl-5-methyl-N2-(3-phenylaminosulfonyl)phenyl-2,4-pyrimidinediamine] | 266 nM | 1080 nM | –
Cc1cnc(Nc2ccc(S(=O)(=O)NCc3ccccc3)cc2)nc1Nc1cccc(CNS(=O)(=O)C2CC2)c1 [Compound I-157, N2-(4-benzylaminosulfonyl)phenyl-N4-(3-cyclopropylsulfonylaminomethyl)phenyl-5-methyl-2,4-pyrimidinediamine] | 250 nM | 1100 nM | –
Cc1cnc(Nc2cccc(S(=O)(=O)NCc3ccccc3)c2)nc1Nc1cccc(CNS(=O)(=O)C2CC2)c1 [Compound I-158, N2-(3-benzylaminosulfonyl)phenyl-N4-(3-cyclopropylsulfonylaminomethyl)phenyl-5-methyl-2,4-pyrimidinediamine] | 300 nM | 531 nM | –
Cc1cnc(Nc2ccc(S(=O)(=O)NC3CCN(C)CC3)cc2)nc1Nc1cccc(CNS(=O)(=O)C2CC2)c1 [Compound I-159, N4-(3-cyclopropylsulfonylaminomethyl)phenyl-5-methyl-N2-[4-(1-methylpiperidin-4-yl)aminosulfonyl]phenyl-2,4-pyrimidinediamine] | 539 nM | 7960 nM | –
Cc1cnc(Nc2cccc(S(=O)(=O)NC3CCN(C)CC3)c2)nc1Nc1cccc(CNS(=O)(=O)C2CC2)c1 [Compound I-160, N4-(3-cyclopropylsulfonylaminomethyl)phenyl-5-methyl-N2-[3-(1-methylpiperidin-4-yl)aminosulfonyl]phenyl-2,4-pyrimidinediamine] | 242 nM | 3960 nM | –
Cc1cnc(Nc2ccc(S(=O)(=O)NCc3ccncc3)cc2)nc1Nc1ccc(CNS(=O)(=O)C2CC2)cc1 [Compound I-168, N4-(4-cyclopropylsulfonylaminomethyl)phenyl-5-methyl-N2-[4-(4-pyridylmethyl)aminosulfonyl]phenyl-2,4-pyrimidinediamine] | 278 nM | 347 nM | –
Cc1cnc(Nc2ccc(S(=O)(=O)Nc3cccnc3)cc2)nc1Nc1ccc(CNS(=O)(=O)C2CC2)cc1 [Compound I-171, N4-(4-cyclopropylsulfonylaminomethyl)phenyl-5-methyl-N2-[4-(3-pyridyl)aminosulfonyl]phenyl-2,4-pyrimidinediamine] | 19500 nM | 42300 nM | –
